According to patent publication US4328242A, “α-(3,4,5-Trimethoxyhenzoyl)thiopropionyl-glycine” (Ausoria Farmaceutici S.r.l., priority 1980, dated 1982):
Where two headings read alike, the source gives them in different places.

Columns and labels:
rats [1] = assay: Regenerative action in partial hepatectomy; assay type: in vivo; settings: partial hepatectomy, equimolar doses
Stability to moisture = assay type: physicochemical; settings: open vials, 90% relative humidity, a month
Method: Samples of TBPG and MPG have been maintained in open vials at room temperature under conditions of 90% relative humidity and at 50° C. always with 90% relative humidity. After a month of exposure, the following observations have been made.

rabbits = assay: Secretory activity in rabbits (bronchial secretion); assay type: in vivo; settings: with respect to the control animals
Source text: This activity has been determined using the method described by E. M. Boyd and C. F. Boyd, modified by P. C. Braga, et al described in Bronchial Hypersecretion, 1973. This activity has been determined every hour for a period of four hours by measuring the amount of bronchial secretion derived from the laryngo-tracheal organs and from the tracheo-bronchial organs of rabbits.

rats [2] = assay: Protective activity of the liver in the intoxication caused by CCl4 (BSF elimination); assay type: in vivo; settings: rats intoxicated with CCl4; 90 and 180 mg/kg orally (equimolar)
Method: The animals, that is rats, were intoxicated with CCl4 for a period of seven days. They were treated during the same days and for a subsequent period of seven days with TBPG in the dose of 200 and 400 mg/kg orally and with α-mercaptopropionylglycine in the dose of 90 and 180 mg/kg orally. On the fifteenth day, the rats have been treated with BSF in the amount of 10 mg/kg intravenously.

[3] = Isothermic (accelerated) stability according to the method of Garret, TLC; assay type: physicochemical
Method: The tests of accelerated stability have been carried out with the substance in powder form, that is in glass vials, hermetically closed with a plastic screw cap and also with the substance dissolved in water, that is 500 mg in 10 cc in a transparent glass container of 20 cc capacity closed with a plastic screw cap.
The production of impurities, if any, due to degradation of the substance, has been determined by means of TLC.

[4] = assay type: in vivo; settings: rats, oral route, equimolar doses
[5] = Stability in reducing medium (SO2); assay type: physicochemical; settings: 25 mg/ml, sodium bisulfite calculated as SO2, refluxed three hours
Method: In the presence of SO2 --solutions containing 25 mg/ml of TBPG and MPG respectively in the presence of sodium bisulfite calculated as SO2 are warmed and refluxed for a period of three hours.

rats [6] = assay: Action on the period of sleep induced by barbiturates; assay type: in vivo; settings: rats intoxicated with CCl4; equimolar doses
Method: The activity of TBPG administered for two days in the dose of 200 and 400 mg/kg orally, has been determined on the basis of the reduction of the period of sleep induced by Nembutal on rats intoxicated with CCl4.

Stability to light = assay type: physicochemical; settings: powder form, light of a 60 watt lamp, three months
[7] = solid state as a dry powder and in solution, even at low relative humidity and room temperature; cited from earlier work
rats [8] = assay: Protective action on chronic bronchitis induced by inhalation of SO2; assay type: in vivo; settings: SO2 aerosol, equimolar dosages
Method: Bronchopulmonary lesions were induced in the animals by aerosolization of SO2. The animals were then treated for two weeks with TBPG in the dosage of 100 and 400 mg/kg by the oral route, rectal route and by inhalation.

guinea pigs [9] = assay: Protective activity in subacute bronchitis induced by inhalation of citric acid; assay type: in vivo; settings: 7.5% citric acid inhalation, oral route, equimolar doses
guinea pigs [10] = assay: Antibronchospastic activity, histamine aerosol; assay type: in vivo; settings: equimolar doses
Source text: Histamine administered in the form of an aerosol has caused in guinea pigs symptoms of broncho-spasm accompanied by convulsions, irreversible collapse and death.

[11] = Stability at room temperature; assay type: physicochemical; settings: closed containers, 36 months
Source text: Five different samples of TBPG and α-mercaptopropionyl glycine have been preserved at room temperature in closed containers for a period of 36 months. At the end of the storage period, the following properties have been determined: […]

rats [12] = assay: Bronchosecretolithic activity in rats (sodium fluorescine method); assay type: in vivo; settings: 135 mg/kg intraperitoneally (equimolar)
Method: The secretolithic activity of TBPG has been determined in comparison to α-mercaptopropionylglycine by administering 300 mg/kg of the substance intraperitonally and comparing with 135 mg/kg of α-mercaptopropionylglycine administered also intraperitoneally. The doses are equimolar. The method is based on the use of sodium fluorescine described by H. M. Mawatari (Experimental Studies on the Expectorant Action of Several Drugs, Kogoshima Daigakeu Igakeu Zasshi 27, 561, 1976).

[13] = Stability in solution (acidic, alkaline, oxidizing medium); assay type: physicochemical; settings: 3% hydrogen peroxide, two months
[14] = Powder, 60°, read-out: Chromatographic Impurities
[15] = Powder, 70°, read-out: Chromatographic Impurities
[16] = Powder, 80°, read-out: Chromatographic Impurities
[17] = Solution (500 mg in 10 cc water), 60°, read-out: Chromatographic Impurities
[18] = Solution (500 mg in 10 cc water), 70°, read-out: Chromatographic Impurities
[19] = Solution (500 mg in 10 cc water), 80°, read-out: Chromatographic Impurities

With `CC(S)C(=O)NCC(=O)O` (stereo not drawn) [α-mercaptopropionylglycine, 2-mercaptopropionylglycine] the “regeneration of the hepatic tissue, compared with TBPG” value (rats [1]) was “comparable”, the stability to moisture (Stability to moisture; 50° C.) was “marked change in color, odor and taste accompanied by degradation products” and the stability to moisture (Stability to moisture; room temperature (t.a.)) was “significant change of organoleptic properties”. The laryngo-tracheal secretion (rabbits) was “P 0.05 with respect to the control animals”, the tracheo-bronchial secretion (rabbits) was “n.s” and the “elimination of BSF, compared with TBPG” value (rats [2]) was “comparable”. For the same compound, the “Chromatographic Impurities” value ([3]; Powder, 60°, 320 hours) was “Traces”, the degraded at 960 h [3, 14] was 1% and the degraded at 1280 h [3, 14] was 1%. For the same compound, the degraded at 1600 h [3, 14] was 2%, the “Chromatographic Impurities” value ([3]; Powder, 70°, 120 hours) was “Traces” and the degraded at 240 h [3, 15] was 1%. The degraded at 480 h [3, 15] was 2%, the degraded at 45 h [3, 16] was 1% and the degraded at 90 h [3, 16] was 1%. The degraded at 180 h [3, 16] was 2%, the “Chromatographic Impurities” value ([3]; Solution (500 mg in 10 cc water), 60°, 0 hours) was “Absent” and the degraded at 320 h ([3]; Solution (500 mg in 10 cc water), 60°, 320 hours, read-out: Chromatographic Impurities) was 0.5%. It also gave a degraded at 640 h ([3]; Solution (500 mg in 10 cc water), 60°, 640 hours, read-out: Chromatographic Impurities) of 0.6%, a degraded at 960 h [3, 17] of 1% and a degraded at 1280 h [3, 17] of 1.5%. The degraded at 1600 h [3, 17] was 2.5%, the degraded at 180 h [3, 18] was 1% and the degraded at 240 h [3, 18] was 2%. The degraded at 480 h [3, 18] was 2.5%, the degraded at 45 h [3, 19] was 1% and the degraded at 90 h [3, 19] was 2.5%. For the same compound, the degraded at 120 h ([3]; Solution (500 mg in 10 cc water), 80°, 120 hours, read-out: Chromatographic Impurities) was 1.5%, the “concentration in the kidney” value [4] was “high concentrations in the kidney” and the “distribution in the organs” value [4] was “sufficiently homogenous”. The “stability in reducing medium” value [5] was “undergoes substantial physico-chemical and organoleptic change”, the “reduction of the period of sleep induced by Nembutal, compared with TBPG” value (rats [6]) was “essentially comparable” and the stability to light (Stability to light) was “strong yellow color, due to degradation accompanied by an unpleasant odor and taste”. For the same compound, the stability on storage [7] was “low stability”, the “protection of the bronchi and lungs, compared with TBPG” value (rats [8]) was “Analogous results” and the “efficacy compared with TBPG” value (guinea pigs [9]) was “essentially overlapping”. For the same compound, the “antibronchospastic efficacy compared with TBPG” value (guinea pigs [10]) was “efficacy comparable”, the “organoleptic properties (taste, odor)” value [11] was “undergo substantial change” and the bronchosecretolithic activity (rats [12]) was 15.2%. The “stability in oxidizing medium” value [13] was “the change is greater”.
